Measurements taken from PubChem BioAssay AID1963856 (Molecular Pharmacology Branch, DTP, NCI, 2024).

Test system: LG0567-F671-PDC KRAS tumor spheroid viability
Experiment: Anticancer human tumor LG0567-F671-PDC patient-derived lung adenocarcinoma cell line growth inhibition [KRAS2]
Conditions: spheroids with HUVEC and MSC; for IC50: curve of first compound; for viability, T/C: stronger effect = lower value; active means viability on the fitted dose curve at most 10% of control; inactive means the rest
Outline: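 KRAS-mutant tumor cells were grown as spheroids with HUVEC endothelial cells and human MSCs as stroma. Targeted agents were tested alone and with KRAS pathway inhibitors. Doses started at or near clinical Cmax, or 10 microM, descending half-log.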

[1] = second compound 0.1 µM, first compound 0.000316 µM
[2] = second compound 0.1 µM, first compound 0.001 µM
[3] = second compound 0.1 µM, first compound 0.00316 µM
[4] = second compound 0.1 µM, first compound 0.01 µM
[5] = second compound 0.1 µM, first compound 0.0316 µM
[6] = second compound 0.1 µM, first compound 0.1 µM
[7] = second compound 0.316 µM, first compound 0.000316 µM
[8] = second compound 0.316 µM, first compound 0.001 µM
[9] = second compound 0.316 µM, first compound 0.00316 µM
[10] = second compound 0.316 µM, first compound 0.01 µM
[11] = second compound 0.316 µM, first compound 0.0316 µM
[12] = second compound 0.316 µM, first compound 0.1 µM
[13] = second compound 1 µM, first compound 0.000316 µM
[14] = second compound 1 µM, first compound 0.001 µM
[15] = second compound 1 µM, first compound 0.00316 µM
[16] = second compound 1 µM, first compound 0.01 µM
[17] = second compound 1 µM, first compound 0.0316 µM
[18] = second compound 1 µM, first compound 0.1 µM
[19] = second compound 3.16 µM, first compound 0.000316 µM
[20] = second compound 3.16 µM, first compound 0.001 µM
[21] = second compound 3.16 µM, first compound 0.00316 µM
[22] = second compound 3.16 µM, first compound 0.01 µM
[23] = second compound 3.16 µM, first compound 0.0316 µM
[24] = second compound 3.16 µM, first compound 0.1 µM
[25] = second compound 10 µM, first compound 0.000316 µM
[26] = second compound 10 µM, first compound 0.001 µM
[27] = second compound 10 µM, first compound 0.00316 µM
[28] = second compound 10 µM, first compound 0.01 µM
[29] = second compound 10 µM, first compound 0.0316 µM
[30] = second compound 10 µM, first compound 0.1 µM
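Further: drug exposure lasted seven days after spheroids formed for three days.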
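Wherever viability, T/C is given: 100% = DMSO vehicle control viability.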

CC(C)n1nc(-c2ccc3oc(N)nc3c2)c2c(N)ncnc21 + COc1cc2nc(C)nc(NC(C)c3cc(N)cc(C(F)(F)F)c3)c2cc1OC1CCOC1
active: viability, T/C [30] 9.84%
2.92 nM: IC50 (second compound 1 µM)
56 nM: IC50 (second compound 0.1 µM)
inactive: viability, T/C [1] 76.4% | viability, T/C [2] 73.5% | viability, T/C [3] 60.4% | viability, T/C [4] 60.6% | viability, T/C [5] 51.8% | viability, T/C [6] 47.5% | viability, T/C [7] 65.2% | viability, T/C [8] 73.6% | viability, T/C [9] 57.7% | viability, T/C [10] 47.5% | viability, T/C [11] 49.8% | viability, T/C [12] 34.7% | viability, T/C [13] 70.1% | viability, T/C [14] 59.1% | viability, T/C [15] 45.8% | viability, T/C [16] 45.2% | viability, T/C [17] 28.4% | viability, T/C [18] 23.5% | viability, T/C [19] 59.9% | viability, T/C [20] 49.9% | viability, T/C [21] 38.4% | viability, T/C [22] 32% | viability, T/C [23] 20.5% | viability, T/C [24] 10.2% | viability, T/C [25] 37.7% | viability, T/C [26] 35.2% | viability, T/C [27] 24.8% | viability, T/C [28] 16.2% | viability, T/C [29] 11.5%
15.7 nM: IC50 (second compound 0.316 µM)
< 0.316 nM: IC50 (second compound 10 µM)
0.992 nM: IC50 (second compound 3.16 µM)

Cn1ncnc1[C@H]1c2n[nH]c(=O)c3cc(F)cc(c23)N[C@@H]1c1ccc(F)cc1 + C=CC(=O)N1CCN(c2nc(OCC3CCCN3C)nc3c2CCN(c2cccc4cccc(C)c24)C3)CC1CC#N
inactive: viability, T/C (second compound 0.0316 µM, first compound 0.000316 µM) 44.2% | viability, T/C (second compound 0.0316 µM, first compound 0.001 µM) 41.6% | viability, T/C (second compound 0.0316 µM, first compound 0.00316 µM) 36.3% | viability, T/C (second compound 0.0316 µM, first compound 0.01 µM) 35.6% | viability, T/C (second compound 0.0316 µM, first compound 0.0316 µM) 32% | viability, T/C (second compound 0.0316 µM, first compound 0.1 µM) 29.4% | viability, T/C [1] 34% | viability, T/C [2] 28.7% | viability, T/C [3] 37.9% | viability, T/C [4] 27.4% | viability, T/C [5] 27.6% | viability, T/C [6] 27.9% | viability, T/C [7] 34% | viability, T/C [8] 35.5% | viability, T/C [9] 25.3% | viability, T/C [10] 25.8% | viability, T/C [11] 29.6% | viability, T/C [12] 30.8% | viability, T/C [13] 41.2% | viability, T/C [14] 32.9% | viability, T/C [15] 35.3% | viability, T/C [16] 26.7% | viability, T/C [17] 26.1% | viability, T/C [18] 24.9% | viability, T/C [19] 14.8% | viability, T/C [20] 16.5% | viability, T/C [21] 15.4% | viability, T/C [22] 16.1% | viability, T/C [23] 10.8% | viability, T/C [24] 9.1%
< 0.316 nM: IC50 (second compound 0.0316 µM) | IC50 (second compound 0.1 µM) | IC50 (second compound 0.316 µM) | IC50 (second compound 1 µM) | IC50 (second compound 3.16 µM)

CC(=O)Nc1cccc(-n2c(=O)n(C3CC3)c(=O)c3c(Nc4ccc(I)cc4F)n(C)c(=O)c(C)c32)c1 + COc1cc2nc(C)nc(NC(C)c3cc(N)cc(C(F)(F)F)c3)c2cc1OC1CCOC1
0.299 nM: IC50 (second compound 0.316 µM)
active: viability, T/C [5] 8.34% | viability, T/C [17] 7.58% | viability, T/C [23] 6.02% | viability, T/C [28] 5.95% | viability, T/C [29] 1.33%
inactive: viability, T/C (second compound 0.1 µM, first compound 0.0001 µM) 69.8% | viability, T/C [1] 52.6% | viability, T/C [2] 53% | viability, T/C [3] 39.9% | viability, T/C [4] 25.9% | viability, T/C (second compound 0.316 µM, first compound 0.0001 µM) 60.9% | viability, T/C [7] 48.7% | viability, T/C [8] 36.3% | viability, T/C [9] 33.2% | viability, T/C [10] 22.7% | viability, T/C [11] 11.8% | viability, T/C (second compound 1 µM, first compound 0.0001 µM) 45.4% | viability, T/C [13] 43% | viability, T/C [14] 39.7% | viability, T/C [15] 31.2% | viability, T/C [16] 26.8% | viability, T/C (second compound 3.16 µM, first compound 0.0001 µM) 48.6% | viability, T/C [19] 43.7% | viability, T/C [20] 34% | viability, T/C [21] 19.2% | viability, T/C [22] 17.1% | viability, T/C (second compound 10 µM, first compound 0.0001 µM) 41.3% | viability, T/C [25] 36.6% | viability, T/C [26] 27.2% | viability, T/C [27] 13.4%
1 nM: IC50 (second compound 0.1 µM)
< 0.1 nM: IC50 (second compound 1 µM) | IC50 (second compound 3.16 µM) | IC50 (second compound 10 µM)

CC1COCCN1c1cc(-c2ccnn2C)c2ccnc(-c3ccn[nH]3)c2n1 (stereo not given) + CNCc1ccccc1-c1csc(C(C)Nc2nc(C)nc3cc(OC)c(OC)cc23)c1
< 10 nM: IC50 (second compound 10 µM)
active: viability, T/C [28] 0.18% | viability, T/C [29] 0.17% | viability, T/C [30] 0.15% | viability, T/C (second compound 10 µM, first compound 0.316 µM) 0.17% | viability, T/C (second compound 10 µM, first compound 1 µM) 0.74% | viability, T/C (second compound 10 µM, first compound 3.16 µM) 0.24%
> 3160 nM: IC50 (second compound 0.1 µM)
372 nM: IC50 (second compound 0.316 µM)
160 nM: IC50 (second compound 3.16 µM)
41.4 nM: IC50 (second compound 1 µM)
inactive: viability, T/C [4] 87.1% | viability, T/C [5] 74.4% | viability, T/C [6] 60.2% | viability, T/C (second compound 0.1 µM, first compound 0.316 µM) 58.9% | viability, T/C (second compound 0.1 µM, first compound 1 µM) 48.6% | viability, T/C (second compound 0.1 µM, first compound 3.16 µM) 54% | viability, T/C [10] 85.9% | viability, T/C [11] 77.7% | viability, T/C [12] 60.6% | viability, T/C (second compound 0.316 µM, first compound 0.316 µM) 50.6% | viability, T/C (second compound 0.316 µM, first compound 1 µM) 46% | viability, T/C (second compound 0.316 µM, first compound 3.16 µM) 49.2% | viability, T/C [16] 68% | viability, T/C [17] 50.7% | viability, T/C [18] 42.6% | viability, T/C (second compound 1 µM, first compound 0.316 µM) 41.4% | viability, T/C (second compound 1 µM, first compound 1 µM) 34.7% | viability, T/C (second compound 1 µM, first compound 3.16 µM) 33.4% | viability, T/C [22] 65.6% | viability, T/C [23] 58.5% | viability, T/C [24] 61.6% | viability, T/C (second compound 3.16 µM, first compound 0.316 µM) 29.8% | viability, T/C (second compound 3.16 µM, first compound 1 µM) 33.2% | viability, T/C (second compound 3.16 µM, first compound 3.16 µM) 36.2%
